This note sets out measurements from ChEMBL document CHEMBL3526130, “An evaluation of using rat-derived single-dose neuropharmacokinetic parameters to project accurately large animal unbound brain drug concentrations” (Drug Metab Dispos, 2012).

Structures are written as SMILES.

Holding throughout (assay type): ADME, organism-based
Data set [1] can be described thus: AUC(0 to 2 hrs) in Sprague-Dawley rat plasma at 2 mg/kg, sc by LC-MS/MS analysis. Also on record: time < 2 hr, dose 2 mg/kg, route subcutaneous.
A further data set relates to Nucleic Acid. Briefly: Ratio of drug level in cerebrospinal fluid to unbound plasma concentration in Sprague-Dawley rat at 2 mg/kg, sc by LC-MS/MS analysis. Set-up: dose 2 mg/kg, route subcutaneous. The following applies: in vivo.
Data set [2] in a line: AUC(0 to 2 hrs) in Sprague-Dawley rat brain at 2 mg/kg, sc by LC-MS/MS analysis. Also on record: time < 2 hr, dose 2 mg/kg, route subcutaneous.
Data set [3] is described as follows: Ratio of unbound drug level in brain to plasma in Sprague-Dawley rat at 2 mg/kg, sc by LC-MS/MS analysis. Set-up: dose 2 mg/kg, route subcutaneous.
Data set [4] can be described thus: AUC(0 to infinity) in Sprague-Dawley rat plasma at 2 mg/kg, sc by LC-MS/MS analysis. Set-up: time infinity, dose 2 mg/kg, route subcutaneous.
Data set [5] in a line: AUC(0 to 2 hrs) in Sprague-Dawley rat cerebrospinal fluid at 2 mg/kg, sc by LC-MS/MS analysis. Set-up: time < 2 hr, dose 2 mg/kg, route subcutaneous.
Data set [6] is described as follows: AUC(0 to infinity) in Sprague-Dawley rat cerebrospinal fluid at 2 mg/kg, sc by LC-MS/MS analysis. Also on record: time infinity, dose 2 mg/kg, route subcutaneous.
A short description of data set [7]: Ratio of drug level in brain to plasma in Sprague-Dawley rat at 2 mg/kg, sc by LC-MS/MS analysis. Also on record: dose 2 mg/kg, route subcutaneous. The following applies: read-out: BPR.
Data set [8] can be described thus: Ratio of unbound brain concentration to drug level in cerebrospinal fluid in Sprague-Dawley rat at 2 mg/kg, sc by LC-MS/MS analysis. Conditions: in vivo. Also on record: dose 2 mg/kg, route subcutaneous.
The nature of data set [9]: AUC(0 to infinity) in Sprague-Dawley rat brain at 2 mg/kg, sc by LC-MS/MS analysis. Also on record: dose 2 mg/kg, route subcutaneous, time infinity.

The AUC(0-t) is the area under the concentration-time curve up to a stated or last time point. Low readings indicate less exposure, high ones more exposure. As usually defined, the AUC(0-inf) is the area under the concentration-time curve extrapolated to infinity. High values mean more exposure, low ones less exposure.

Regarding `Clc1ccc2c(c1)N=C(N1CCNCC1)c1ccccc1N2` [N-DESMETHYLCLOZAPINE], the AUC(0-t) at 2 h was 346 ng·h/mL in data set [1], 221 ng·h/mL in data set [2] and 4.8 ng·h/mL in [5]. The Ratio in the data set with Nucleic Acid stood at 0.22; in data set [8] it was 0.26. The Kp uu in [3] was determined as 0.06. Moreover, the results for the AUC(0-inf) in data set [4], in data set [6] and in data set [9] were 570 ng·h/mL, 8.91 ng·h/mL and 699 ng·h/mL, respectively. The Kp in [7] stood at 0.64.
